Measured values taken from ChEMBL document CHEMBL1201862, “PubChem BioAssay data set” (2004).
Activity calls are given as the source filed them.

Legend:
[1] = biological target: Diphosphomevalonate decarboxylase (Streptococcus pneumoniae serotype 2 (strain D39 / NCTC 7466), UniProt Q9FD53); experiment: S. pneumoniae DPM-DC inhibition retest, confirmation, biochemical, cuvette format, coupled NADH fluorescence (AID 1028); format: functional
Vero = experiment: cytotoxicity of synthesized analogs in Vero cells, SAR follow-up, cytotoxicity control for West Nile virus antiviral project, cell-based, set II (AID 2402); format: functional; conditions: Chlorocebus sabaeus
[2] = biological target: Mitogen-activated protein kinase 10 (Homo sapiens, UniProt P53779); experiment: Dose response biochemical screening assay for inhibitors of c-Jun N-Terminal Kinase 3 (JNK3). [Related pubchem assays: 746 ]
Sequence of Mitogen-activated protein kinase 10 (P53779 whole entry): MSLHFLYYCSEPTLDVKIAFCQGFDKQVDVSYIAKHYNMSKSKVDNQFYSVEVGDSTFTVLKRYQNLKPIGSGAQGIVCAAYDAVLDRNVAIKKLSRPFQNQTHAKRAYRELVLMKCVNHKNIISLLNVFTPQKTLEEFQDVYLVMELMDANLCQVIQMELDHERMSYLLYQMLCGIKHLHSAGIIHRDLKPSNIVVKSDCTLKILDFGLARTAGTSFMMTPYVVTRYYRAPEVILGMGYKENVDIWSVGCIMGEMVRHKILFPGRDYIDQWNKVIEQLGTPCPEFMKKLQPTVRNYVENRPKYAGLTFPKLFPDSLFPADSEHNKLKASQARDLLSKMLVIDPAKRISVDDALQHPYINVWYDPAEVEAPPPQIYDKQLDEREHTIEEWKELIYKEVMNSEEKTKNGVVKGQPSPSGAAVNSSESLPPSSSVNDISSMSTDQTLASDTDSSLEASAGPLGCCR

Cytochrome P450 3A4 = Cytochrome P450 3A4 (Homo sapiens, UniProt P08684);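 further: CYP3A4 tested as one member of a cytochrome P450 panel screen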
Sequence of Cytochrome P450 3A4 (P08684 whole entry): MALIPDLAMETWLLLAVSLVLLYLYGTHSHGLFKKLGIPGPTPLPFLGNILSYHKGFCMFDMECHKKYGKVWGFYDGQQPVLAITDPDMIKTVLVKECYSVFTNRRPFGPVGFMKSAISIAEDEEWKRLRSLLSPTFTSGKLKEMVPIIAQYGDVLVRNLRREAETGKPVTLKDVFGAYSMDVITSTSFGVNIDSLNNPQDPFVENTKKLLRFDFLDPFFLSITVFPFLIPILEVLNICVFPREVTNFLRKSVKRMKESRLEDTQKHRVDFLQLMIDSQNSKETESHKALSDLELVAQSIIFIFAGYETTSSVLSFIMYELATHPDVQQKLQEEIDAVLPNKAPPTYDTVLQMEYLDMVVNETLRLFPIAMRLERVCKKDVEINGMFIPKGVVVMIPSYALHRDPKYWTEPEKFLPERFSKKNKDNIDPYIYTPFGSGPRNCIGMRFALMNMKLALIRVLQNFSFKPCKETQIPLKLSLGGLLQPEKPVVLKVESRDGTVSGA

Cytochrome P450 2C19 = Cytochrome P450 2C19 (Homo sapiens, UniProt P33261); experiment: Cytochrome panel assay with activity outcomes. Panel member name: p450-cyp2c19 Compounds with AC50 equal or less than 10 uM are considered active; format: functional; conditions: read-out: AC50
Sequence of Cytochrome P450 2C19 (P33261 whole entry): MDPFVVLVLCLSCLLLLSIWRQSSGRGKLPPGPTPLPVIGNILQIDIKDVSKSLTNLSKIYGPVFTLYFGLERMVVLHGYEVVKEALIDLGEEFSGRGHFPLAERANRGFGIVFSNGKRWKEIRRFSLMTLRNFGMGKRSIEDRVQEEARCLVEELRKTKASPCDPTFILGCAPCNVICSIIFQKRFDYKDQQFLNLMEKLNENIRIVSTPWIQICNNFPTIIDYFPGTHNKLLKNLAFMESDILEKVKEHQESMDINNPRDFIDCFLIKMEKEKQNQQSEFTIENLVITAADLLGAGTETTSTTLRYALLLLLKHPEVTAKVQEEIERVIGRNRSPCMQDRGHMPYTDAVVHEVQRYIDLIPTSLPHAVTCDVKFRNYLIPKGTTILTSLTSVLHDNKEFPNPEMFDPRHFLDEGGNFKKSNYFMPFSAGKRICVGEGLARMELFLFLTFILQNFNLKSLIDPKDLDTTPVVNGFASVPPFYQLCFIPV

Ephrin type-A receptor 4 = Ephrin type-A receptor 4 (Mus musculus, UniProt Q03137); experiment: inhibitors of EphA4 binding to KYL peptide, primary screen, biochemical, colorimetric, mouse EphA4 (AID 689); format: functional
Sequence of Ephrin type-A receptor 4 (Q03137 whole entry): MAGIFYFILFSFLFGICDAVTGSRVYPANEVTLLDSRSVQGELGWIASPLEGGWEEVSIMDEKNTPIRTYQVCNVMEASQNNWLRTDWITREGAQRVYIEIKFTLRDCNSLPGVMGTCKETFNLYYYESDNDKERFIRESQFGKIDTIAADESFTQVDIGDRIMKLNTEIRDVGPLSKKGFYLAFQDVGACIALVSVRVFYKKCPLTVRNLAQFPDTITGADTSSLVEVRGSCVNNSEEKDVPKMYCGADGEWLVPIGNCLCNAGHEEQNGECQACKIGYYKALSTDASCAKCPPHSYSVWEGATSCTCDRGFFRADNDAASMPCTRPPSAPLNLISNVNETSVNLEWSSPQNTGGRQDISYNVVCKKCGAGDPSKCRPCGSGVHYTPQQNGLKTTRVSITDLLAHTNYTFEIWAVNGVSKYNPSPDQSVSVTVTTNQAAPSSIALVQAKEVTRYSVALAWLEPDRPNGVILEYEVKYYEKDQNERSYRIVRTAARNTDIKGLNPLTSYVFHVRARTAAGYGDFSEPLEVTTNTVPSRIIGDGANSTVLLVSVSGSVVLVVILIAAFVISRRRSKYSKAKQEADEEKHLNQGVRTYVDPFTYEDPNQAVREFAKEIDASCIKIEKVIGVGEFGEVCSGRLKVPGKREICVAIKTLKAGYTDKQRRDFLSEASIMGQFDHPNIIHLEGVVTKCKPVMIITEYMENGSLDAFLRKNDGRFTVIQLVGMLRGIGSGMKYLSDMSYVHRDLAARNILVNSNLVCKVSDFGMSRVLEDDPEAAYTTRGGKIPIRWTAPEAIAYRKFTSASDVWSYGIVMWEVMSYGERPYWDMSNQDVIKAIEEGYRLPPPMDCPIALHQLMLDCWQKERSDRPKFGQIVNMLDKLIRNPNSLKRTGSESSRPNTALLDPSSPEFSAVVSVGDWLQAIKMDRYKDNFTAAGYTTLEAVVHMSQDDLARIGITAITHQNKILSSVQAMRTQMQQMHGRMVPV

[3] = HepG2 cell cytotoxicity, dose response, cytotoxicity control, plate reader, dry powder, set 6 (AID 743311); format: functional, cell-based
[4] = biological target: Ubiquitin carboxyl-terminal hydrolase BAP1 (Homo sapiens, UniProt Q92560); experiment: BAP1 deubiquitinase inhibitors, dose response, biochemical (AID 714); format: functional
Sequence of Ubiquitin carboxyl-terminal hydrolase BAP1 (Q92560 whole entry): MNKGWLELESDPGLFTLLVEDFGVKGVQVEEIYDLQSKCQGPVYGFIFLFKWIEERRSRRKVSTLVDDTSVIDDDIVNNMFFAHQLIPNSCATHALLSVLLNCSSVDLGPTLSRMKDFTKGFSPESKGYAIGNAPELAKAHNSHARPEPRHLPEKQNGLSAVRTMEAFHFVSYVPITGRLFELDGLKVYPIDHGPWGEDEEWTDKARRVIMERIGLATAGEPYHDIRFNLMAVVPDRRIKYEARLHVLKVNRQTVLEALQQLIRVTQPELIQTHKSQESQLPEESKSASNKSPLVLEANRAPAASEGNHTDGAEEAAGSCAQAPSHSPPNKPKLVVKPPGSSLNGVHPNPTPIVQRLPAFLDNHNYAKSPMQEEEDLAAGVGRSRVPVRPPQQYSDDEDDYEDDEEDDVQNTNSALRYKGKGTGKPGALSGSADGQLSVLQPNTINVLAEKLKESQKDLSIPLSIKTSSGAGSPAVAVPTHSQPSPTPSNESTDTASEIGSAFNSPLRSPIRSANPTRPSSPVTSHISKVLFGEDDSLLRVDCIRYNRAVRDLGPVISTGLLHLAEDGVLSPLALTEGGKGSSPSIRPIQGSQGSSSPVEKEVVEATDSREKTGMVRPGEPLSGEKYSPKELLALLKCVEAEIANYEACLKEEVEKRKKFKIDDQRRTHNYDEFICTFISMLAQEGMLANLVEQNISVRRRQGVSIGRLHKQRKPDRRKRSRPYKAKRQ

[5] = biological target: T1, Long-chain-fatty-acid--AMP ligase FadD28 (Mycobacterium tuberculosis, UniProt P9WQ59); experiment: Fluorescence polarization aasay to screen for inhibitors that compete for the binding of FadD28 to a bisubstrate Measured in Biochemical System Using Plate Reader - 2147-01_Inhibitor_Dose_CherryPick_Activity.; format: functional, Mycobacterium tuberculosis H37Rv
T1 sequence (P9WQ59 whole entry): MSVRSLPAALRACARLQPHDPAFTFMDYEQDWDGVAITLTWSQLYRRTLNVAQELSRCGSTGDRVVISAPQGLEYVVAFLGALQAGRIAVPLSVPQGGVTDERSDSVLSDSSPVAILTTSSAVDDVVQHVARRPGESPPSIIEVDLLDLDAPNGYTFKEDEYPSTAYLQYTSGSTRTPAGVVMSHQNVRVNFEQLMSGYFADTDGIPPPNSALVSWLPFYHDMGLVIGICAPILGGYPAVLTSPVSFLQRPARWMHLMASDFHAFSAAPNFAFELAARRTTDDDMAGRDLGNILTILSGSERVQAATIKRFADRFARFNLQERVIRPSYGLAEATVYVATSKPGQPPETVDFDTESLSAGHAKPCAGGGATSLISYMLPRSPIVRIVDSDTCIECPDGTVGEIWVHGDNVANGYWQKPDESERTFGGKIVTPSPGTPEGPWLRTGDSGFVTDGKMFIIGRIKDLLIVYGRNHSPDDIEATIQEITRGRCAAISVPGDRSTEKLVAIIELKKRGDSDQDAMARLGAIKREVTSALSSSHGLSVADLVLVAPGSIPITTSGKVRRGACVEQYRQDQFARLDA

[6] = half-maximal inhibitory concentration for glucagon-like peptide-1 release, STC-1 cell line, dose-response (AID 1117345); format: functional, cell-based
[7] = Glucagon-like peptide 1 release potency, NCI-H716 cell line, dose-response, half-maximal inhibitory concentration (AID 1117344); format: functional, cell-based
[8] = Late stage results for the probe development effort to identify inhibitors of Plasmodium falciparum gametocytes: Luminescence-based cell-based high throughput dose response assay to identify inhibitors of viability of late stage Plasmodium falciparum gametocytes.; format: functional

Sequence of Diphosphomevalonate decarboxylase (Q9FD53 whole entry): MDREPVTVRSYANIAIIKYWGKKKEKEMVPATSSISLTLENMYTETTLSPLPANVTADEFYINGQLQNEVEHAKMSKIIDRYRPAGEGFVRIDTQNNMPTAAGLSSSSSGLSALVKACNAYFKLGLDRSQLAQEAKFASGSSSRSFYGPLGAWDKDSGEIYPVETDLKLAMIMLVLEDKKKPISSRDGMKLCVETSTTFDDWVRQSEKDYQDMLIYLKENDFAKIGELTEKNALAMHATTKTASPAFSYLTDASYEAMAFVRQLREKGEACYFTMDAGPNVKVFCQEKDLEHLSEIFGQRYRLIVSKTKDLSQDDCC

In the case of `O=C(NCc1ccco1)c1ccccc1-n1sc2ccccc2c1=O`, the IC50 [1] is reported as 38.7 µM (active).

For `OC1c2cc(Br)ccc2N=C2CCCCN21` (configuration not stated), the CC50 (Vero) was > 200 µM (active).

With `Cc1ccccc1-n1nc(C)c2cc(C(=O)N3CCOCC3)sc21` the IC50 [2] was > 93.1 µM (not active).

In the case of `CCOC(=O)c1c(N=C(S)Nc2ccccc2)sc2c1CCN(CCc1ccccc1)C2`, the AC50 (Cytochrome P450 3A4) is reported as 22.4 µM (inconclusive), the AC50 (Cytochrome P450 2C19) is reported as 22.4 µM (inconclusive) and the IC50 (Ephrin type-A receptor 4) is reported as 14.7 µM (active).

For `O=S(=O)(c1ccc(OCCn2cnc3ccccc32)cc1)N1CCOCC1`, the AC50 [3] was > 52 µM (inactive).

For `CC1CCCN(S(=O)(=O)c2ccc(NC(=O)Cn3nnc(-c4ccccc4F)n3)cc2)C1` (configuration not stated), the IC50 [4] was 41.6 µM (not active) and the AC50 [5] was > 100 µM (inactive).

With `CCCCC(CC)CN1CN(CC(CC)CCCC)CC(C)(N)C1` (configuration not stated) [HEXETIDINE] the IC50 [6] was 26.6 µM (inactive) and the IC50 [7] was 36.4 µM (inactive).

For `Cc1cnc(NC(=O)c2cn(-c3ccccc3)nc2-c2cccnc2)s1`, the IC50 [8] was > 74.4 µM (inactive).
